How the values were obtained:
Mus musculus [1] = organism: Mus musculus; assay: Compound was evaluated for antitumor activity against L1210 leukemia in mice and percent increase in life span was determined.; type: functional
Mus musculus [2] = assay: Compound was evaluated for antitumor activity against L1210 leukemia in mice and LD10 was determined 24 hour after subcutaneous administration in 10 E 6 cells implanted intraperitoneally.; type: ADME, organism-based; details: in vivo, sc
Mus musculus [3] = organism: Mus musculus; assay: Compound was evaluated for antitumor activity against L1210 leukemia in mice and median survival time was determined at ten mice per run.; type: functional
Mus musculus [4] = organism: Mus musculus; assay: Compound was evaluated for antitumor activity against L1210 leukemia in mice and median survival time was determined at ten animals per run.; type: functional

Compound | ILS (Mus musculus [1]) [%] | LD10 (Mus musculus [2]) [mg/kg] | MST (Mus musculus [3]) [days] | MST (Mus musculus [4]) [days]
CC(Cc1ccc2nc(N)nc(N)c2n1)c1ccc(C(=O)NC(CCC(=O)O)C(=O)O)cc1 (stereo not drawn) | 203 | 0.6 | 21.5 | 
CCC(Cc1ccc2nc(N)nc(N)c2n1)c1ccc(C(=O)NC(CCC(=O)O)C(=O)O)cc1 (stereo not drawn) | 235 | 1.5 |  | 23.8
Nc1nc(N)c2nc(CCc3ccc(C(=O)NC(CCC(=O)O)C(=O)O)cc3)ccc2n1 (stereo not drawn) | 189 | 0.75 |  | 
CCCC(Cc1ccc2nc(N)nc(N)c2n1)c1ccc(C(=O)NC(CCC(=O)O)C(=O)O)cc1 (stereo not drawn) | 176 | 6 |  | 
CN(Cc1cnc2nc(N)nc(N)c2n1)c1ccc(C(=O)N[C@@H](CCC(=O)O)C(=O)O)cc1 [METHOTREXATE] | 187 | 15 |  | 20.4
